For three compounds, solubility results are on record in US20260190612A1, “LIGHT-EMITTING DEVICE” (SEMICONDUCTOR ENERGY LABORATORY CO., LTD., priority 2022, published 2026).

One may read the solubility as how much of the substance goes into solution per volume. A low value points to a poorly soluble substance.

This series is described as follows: solubility of the first organic compound in water.

Each structure is given as a SMILES string. Converted amounts (≈) assume the structure as drawn.

In turn, `c1ccc2c(c1)-c1ccccc1C21c2cc(N3CCCN4CCCN=C43)ccc2-c2ccc(N3CCCN4CCCN=C43)cc21` [2,7hpp2SF, 1,1′-(9,9′-spirobi[9H-fluorene]-2,7-diyl)bis(1,3,4,6,7,8-hexahydro-2H-pyrimido[1,2-a]pyrimidine)] showed a solubility of 230 to 390 µg/mL (≈ 389 to 660 µM).
As to `c1ccc2c(c1)-c1ccccc1C21c2ccccc2-c2ccc(N3CCCN4CCCN=C43)cc21` [2hppSF, 1-(9,9′-spirobi[9H-fluoren]-2-yl)-1,3,4,6,7,8-hexahydro-2H-pyrimido[1,2-a]pyrimidine], the solubility lay in the range of 18 to 22 µg/mL (≈ 39.7 to 48.5 µM).
Compound `CC(C)(C)c1ccc2c(c1)C1(c3ccccc3-c3ccc(N4CCCN5CCCN=C54)cc31)c1cc(C(C)(C)C)ccc1-2` [2′,7′tBu-2hppSF, 1-(2′,7′-di-tert-butyl-9,9′-spirobi[9H-fluoren]-2-yl)-1,3,4,6,7,8-hexahydro-2H-pyrimido[1,2-a]pyrimidine] had a solubility of under 2.3 µg/mL.
